In patent publication US20170326125A1, “MULTISUBSTITUTED AROMATIC COMPOUNDS AS INHIBITORS OF THROMBIN” (VERSEON CORPORATION, priority 2016, published 2017):

These compounds were tested against T1, Human thrombin (Homo sapiens, UniProt P00734) (assay: Inhibition of the protease activity of thrombin (chromogenic substrate S-2238)). Settings: Table C; 3 nM thrombin, 125 μM S-2238, 10 min pre-incubation, RT.
T1 construct: purchased Haematologic Technologies Inc
Assay type: biochemical
For `Cc1ccc(C(=O)n2nc(-c3cccnc3)nc2NCc2ccccc2)cc1` [Cmpd 411, N-benzyl-1-[(4-methylphenyl)carbonyl]-3-(pyridin-3-yl)-1H-1,2,4-triazol-5-amine], the IC50 was < 0.1 µM. `COC(=O)c1n[nH]c(N=Cc2cccnc2)n1` [Cmpd 387, methyl 5-[(pyridin-3-ylmethylidene)amino]-1H-1,2,4-triazole-3-carboxylate] was tested, and the IC50 was > 1 µM. For `CC(C)C(=O)n1nc(-c2cccnc2)nc1NCc1ccccc1` [Cmpd 349, 1-[5-(benzylamino)-3-(pyridin-3-yl)-1H-1,2,4-triazol-1-yl]-2-methylpropan-1-one], the IC50 was < 0.1 µM. For `COc1ccc(CNc2nc(-c3cccnc3)nn2C(=O)C(C)C)cc1` [Cmpd 318, 1-(5-[(4-methoxyphenyl)methyl]amino-3-(pyridin-3-yl)-1H-1,2,4-triazol-1-yl)-2-methylpropan-1-one], the IC50 was < 0.1 µM. With `O=C(Nc1ccccc1Cl)c1nc(-n2cnnc2)n[nH]1` [Cmpd 391, N-(2-chlorophenyl)-3-(4H-1,2,4-triazol-4-yl)-1H-1,2,4-triazole-5-carboxamide] the IC50 was > 1 µM. For `CCCC(=O)n1nc(-c2cccnc2)nc1NCc1cccs1` [Cmpd 342, 1-[3-(pyridin-3-yl)-5-[(thiophen-2-ylmethyl)amino]-1H-1,2,4-triazol-1-yl]butan-1-one], the IC50 was < 0.1 µM. In the case of `CC(C)C(=O)n1nc(-c2cccnc2)nc1NCc1ccc(F)cc1` [Cmpd 312, 1-(5-[(4-fluorophenyl)methyl]amino-3-(pyridin-3-yl)-1H-1,2,4-triazol-1-yl)-2-methylpropan-1-one], the IC50 is reported as < 0.1 µM. In the case of `O=C(c1ccco1)n1nc(-c2cccnc2)nc1NCc1ccc(F)cc1` [Cmpd 402, N-[(4-fluorophenyl)methyl]-1-[(furan-2-yl)carbonyl]-3-(pyridin-3-yl)-1H-1,2,4-triazol-5-amine], the IC50 is reported as < 0.1 µM. With `COC(=O)c1nnc(NC(=O)c2ccc(Br)cc2)[nH]1` [Cmpd 383, methyl 5-[(4-bromobenzene)amido]-1H-1,2,4-triazole-3-carboxylate] the IC50 was > 1 µM. `COc1ccc(CNc2nc(-c3cccnc3)nn2C(=O)c2ccco2)cc1` [Cmpd 340, 1-[(furan-2-yl)carbonyl]-N-[(4-methoxyphenyl)methyl]-3-(pyridin-3-yl)-1H-1,2,4-triazol-5-amine] gave an IC50 of 0.1 to 1 µM. `COC(=O)c1nc(NC(=O)c2ccc(Cl)cc2Cl)n[nH]1` [Cmpd 377, methyl 3-[(2,4-dichlorobenzene)amido]-1H-1,2,4-triazole-5-carboxylate] was tested, and the IC50 was > 1 µM. With `CS(=O)(=O)n1nc(-c2ccco2)nc1NCc1cccs1` [Cmpd 369, 3-(furan-2-yl)-1-methanesulfonyl-N-(thiophen-2-ylmethyl)-1H-1,2,4-triazol-5-amine] the IC50 was > 1 µM. In the case of `CC(=O)Nc1n[nH]c(NCc2ccccc2)n1` [Cmpd 406, N-[5-(benzylamino)-1H-1,2,4-triazol-3-yl]acetamide], the IC50 is reported as > 1 µM. For `O=C(c1ccccc1)n1nc(-c2cccnc2)nc1NCc1ccc(F)cc1` [Cmpd 356, 1-benzoyl-N-[(4-fluorophenyl)methyl]-3-(pyridin-3-yl)-1H-1,2,4-triazol-5-amine], the IC50 was < 0.1 µM. Work on `CCC(=O)n1nc(-c2cccnc2)nc1NCc1ccc(OC)cc1` [Cmpd 324, 1-(5-[(4-methoxyphenyl)methyl]amino-3-(pyridin-3-yl)-1H-1,2,4-triazol-1-yl)propan-1-one] yielded an IC50 of 0.1 to 1 µM.

Same assay, conditions: inhibition of the protease activity of thrombin
`CC(C)(C)OC(=O)Nc1ccccc1C(=O)n1nc(-c2ccccn2)nc1NCc1ccccc1` [Cmpd 301, tert-butyl N-(2-[5-(benzylamino)-3-(pyridin-2-yl)-1H-1,2,4-triazol-1-yl]carbonylphenyl)carbamate] was tested, and the IC50 was > 1 µM. For `O=C(c1ccco1)n1nc(-c2ccncc2)nc1NCc1ccc(F)cc1` [Cmpd 211, N-[(4-fluorophenyl)methyl]-1-[(furan-2-yl)carbonyl]-3-(pyridin-4-yl)-1H-1,2,4-triazol-5-amine], the IC50 was < 0.1 µM. For `O=C(c1ccoc1)n1nc(-c2cccnc2)nc1NCc1ccc(F)cc1` [Cmpd 213, N-[(4-fluorophenyl)methyl]-1-[(furan-3-yl)carbonyl]-3-(pyridin-3-yl)-1H-1,2,4-triazol-5-amine], the IC50 was < 0.1 µM. `Cc1ccccc1C(=O)n1nc(-c2ccccc2)nc1NCc1ccc(F)cc1` [Cmpd 209, N-[(4-fluorophenyl)methyl]-1-[(2-methylphenyl)carbonyl]-3-phenyl-1H-1,2,4-triazol-5-amine] showed an IC50 of 0.1 to 1 µM. In the case of `COc1cccc(C(=O)n2nc(-c3ccccn3)nc2NCc2ccccc2)c1OC` [Cmpd 233, N-benzyl-1-[(2,3-dimethoxyphenyl)carbonyl]-3-(pyridin-2-yl)-1H-1,2,4-triazol-5-amine], the IC50 is reported as < 0.1 µM. For `O=C(c1ccoc1)n1nc(-c2ccccn2)nc1NCc1ccccc1` [Cmpd 267, N-benzyl-1-[(furan-3-yl)carbonyl]-3-(pyridin-2-yl)-1H-1,2,4-triazol-5-amine], the IC50 was < 0.1 µM. For `CCCn1nc(NCc2ccc(F)cc2)nc1-c1ccccn1` [Cmpd 217, N-[(4-fluorophenyl)methyl]-1-propyl-5-(pyridin-2-yl)-1H-1,2,4-triazol-3-amine], the IC50 was > 1 µM. For `c1ccc(CNc2nc(-c3ccncc3)n[nH]2)cc1` [Cmpd 290, N-benzyl-3-(pyridin-4-yl)-1H-1,2,4-triazol-5-amine], the IC50 was > 1 µM. For `COc1ccc(CNc2nc(-c3ccncc3)nn2C(=O)c2cccs2)cc1` [Cmpd 229, N-[(4-methoxyphenyl)methyl]-3-(pyridin-4-yl)-1-[(thiophen-2-yl)carbonyl]-1H-1,2,4-triazol-5-amine], the IC50 was > 1 µM. With `CC(C)(C)OC(=O)n1nc(-c2cccnc2)nc1NCc1ccc(F)cc1` [Cmpd 300, tert-butyl 5-[(4-fluorophenyl)methyl]amino-3-(pyridin-3-yl)-1H-1,2,4-triazole-1-carboxylate] the IC50 was > 1 µM.

Same assay, conditions: inhibition of the protease activity of thrombin; class symbols a/b/c
With `CC(=O)c1cn(-c2ccccn2)nc1NCc1ccc(F)cc1` [Cmpd 60, 1-(3-[(4-fluorophenyl)methyl]amino-1-(pyridin-2-yl)-1H-pyrazol-4-yl)ethan-1-one] the IC50 was > 1 µM. In the case of `CC(C)C(=O)n1nc(-c2ccccn2)nc1NCc1ccccc1` [Cmpd 138, 1-[5-(benzylamino)-3-(pyridin-2-yl)-1H-1,2,4-triazol-1-yl]-2-methylpropan-1-one], the IC50 is reported as < 0.1 µM. In the case of `CC(=O)c1cc(-c2ccccn2)nn1CCc1ccc(F)cc1` [Cmpd 164, 1-1-[2-(4-fluorophenyl)ethyl]-3-(pyridin-2-yl)-1H-pyrazol-5-ylethan-1-one], the IC50 is reported as > 1 µM. `Cc1ccc(C(=O)n2nc(-c3ccccn3)cc2NCc2ccccc2)c(N)c1` [Cmpd 108, 1-[(2-amino-4-methylphenyl)carbonyl]-N-benzyl-3-(pyridin-2-yl)-1H-pyrazol-5-amine] showed an IC50 of 0.1 to 1 µM. For `COC(=O)c1n[nH]c(NC(=O)c2ccccc2OC)n1` [Cmpd 194, methyl 5-[(2-methoxybenzene)amido]-1H-1,2,4-triazole-3-carboxylate], the IC50 was > 1 µM. For `O=C(O)c1cc(-c2ccccn2)n(CCc2ccc(F)cc2)n1` [Cmpd 58], the IC50 was > 1 µM. `CCC(=O)n1nc(-c2cccs2)nc1NCc1ccc(F)cc1` [Cmpd 83, 1-(5-[(4-fluorophenyl)methyl]amino-3-(thiophen-2-yl)-1H-1,2,4-triazol-1-yl)propan-1-one] was tested, and the IC50 was 0.1 to 1 µM. With `CC(=O)Cn1nc(-c2cccnc2)nc1NCc1ccc(F)cc1` [Cmpd 73, 1-(5-[(4-fluorophenyl)methyl]amino-3-(pyridin-3-yl)-1H-1,2,4-triazol-1-yl)propan-2-one] the IC50 was > 1 µM. Work on `COC(=O)n1nc(-c2cccnc2)nc1NCc1ccc(F)cc1` [Cmpd 20] yielded an IC50 of 0.1 to 1 µM. For `CCCC(=O)n1nc(-c2ccncc2)nc1NCc1ccccc1` [Cmpd 150, 1-[5-(benzylamino)-3-(pyridin-4-yl)-1H-1,2,4-triazol-1-yl]butan-1-one], the IC50 was < 0.1 µM. `O=C(O)c1cn(-c2ccccn2)nc1NCc1ccc(F)cc1` [Cmpd 47] was tested, and the IC50 was > 1 µM. In the case of `CCC(=O)n1nc(-c2cccs2)nc1SC` [Cmpd 154, 1-[5-(methylsulfanyl)-3-(thiophen-2-yl)-1H-1,2,4-triazol-1-yl]propan-1-one], the IC50 is reported as > 1 µM. For `CCCC(=O)n1nc(-c2ccccn2)nc1NCc1ccc(F)cc1` [Cmpd 69, 1-(5-[(4-fluorophenyl)methyl]amino-3-(pyridin-2-yl)-1H-1,2,4-triazol-1-yl)butan-1-one], the IC50 was < 0.1 µM. With `CCC(=O)n1nc(-c2cccnc2)nc1N(C)C` [Cmpd 24] the IC50 was > 1 µM. `O=C(c1ccccc1)n1nc(-c2ccccn2)nc1NCc1ccccc1` [Cmpd 159, 1-benzoyl-N-benzyl-3-(pyridin-2-yl)-1H-1,2,4-triazol-5-amine] was tested, and the IC50 was < 0.1 µM. For `CCC(=O)n1nc(-c2cccnc2)nc1NCCc1ccccc1` [Cmpd 22], the IC50 was > 1 µM. With `COc1ccc(CNc2nc(-c3ccncc3)nn2C(=O)c2ccoc2)cc1` [Cmpd 127, 1-[(furan-3-yl)carbonyl]-N-[(4-methoxyphenyl)methyl]-3-(pyridin-4-yl)-1H-1,2,4-triazol-5-amine] the IC50 was > 1 µM. `CCC(=O)n1nc(-c2cccnc2)nc1NCc1ccc(C#N)cc1` [Cmpd 10] was tested, and the IC50 was > 1 µM. For `CCC(=O)n1nc(-c2cccnc2)nc1NCCN1CCOCC1` [Cmpd 23], the IC50 was > 1 µM. In the case of `COc1ccccc1C(=O)n1nc(-c2ccncn2)nc1NCc1ccccc1` [Cmpd 33], the IC50 is reported as < 0.1 µM. With `O=C(Nc1cc(-c2ccccn2)nn1-c1ccccc1Cl)c1ccc(F)cc1` [Cmpd 43] the IC50 was > 1 µM. For `CC(=O)Oc1ccccc1C(=O)n1nc(-c2ccccn2)nc1NCc1ccccc1` [Cmpd 177, 2-[5-(benzylamino)-3-(pyridin-2-yl)-1H-1,2,4-triazol-1-yl]carbonylphenyl acetate], the IC50 was < 0.1 µM. With `CSc1nc(-c2cccs2)nn1C(=O)c1ccccc1Cl` [Cmpd 110, 1-[(2-chlorophenyl)carbonyl]-5-(methylsulfanyl)-3-(thiophen-2-yl)-1H-1,2,4-triazole] the IC50 was < 0.1 µM. `COc1ccccc1C(=O)n1nc(-c2cccs2)nc1NCc1ccc(F)cc1` [Cmpd 27] gave an IC50 of 0.1 to 1 µM. In the case of `CC(=O)c1cn(-c2ccccc2)nc1NCc1ccc(F)cc1` [Cmpd 61, 1-(3-[(4-fluorophenyl)methyl]amino-1-phenyl-1H-pyrazol-4-yl)ethan-1-one], the IC50 is reported as > 1 µM. `O=C(Nc1nc(C(=O)N2CCOCC2)n[nH]1)c1ccc(Cl)cc1` [Cmpd 184, 4-chloro-N-3-[(morpholin-4-yl)carbonyl]-1H-1,2,4-triazol-5-ylbenzamide] was tested, and the IC50 was > 1 µM.
